In ChEMBL document CHEMBL4507299, “Data for DCP probe PF-04554878” (2021):

Columns and labels:
[1] = test system: Tyrosine-protein kinase ABL1 (Homo sapiens), P00519 [Q252H]
[2] = biological target: Tyrosine-protein kinase ABL1 (Homo sapiens, UniProt P00519)
[3] = biological target: Activin receptor type-1B (Homo sapiens) (UniProt P36896)
[4] = biological target: Activin receptor type-2B (Homo sapiens) (UniProt Q13705)
[5] = biological target: RAC-gamma serine/threonine-protein kinase (Homo sapiens) (UniProt Q9Y243)
[6] = test system: ALK tyrosine kinase receptor (Homo sapiens), Q9UM73 [C1156Y]
[7] = biological target: BMP-2-inducible protein kinase (Homo sapiens) (UniProt Q9NSY1)
[8] = biological target: Cytoplasmic tyrosine-protein kinase BMX (Homo sapiens) (UniProt P51813)
[9] = biological target: Calcium/calmodulin-dependent protein kinase type II subunit beta (Homo sapiens) (UniProt Q13554)
[10] = biological target: Calcium/calmodulin-dependent protein kinase type II subunit delta (Homo sapiens) (UniProt Q13557)
[11] = biological target: Cyclin-dependent kinase 8 (Homo sapiens) (UniProt P49336)
[12] = biological target: Casein kinase I isoform epsilon (Homo sapiens) (UniProt P49674)
[13] = biological target: Mitogen-activated protein kinase kinase kinase 12 (Homo sapiens) (UniProt Q12852)
[14] = test system: Epidermal growth factor receptor (Homo sapiens), P00533 [UNDEFINED MUTATION]
[15] = biological target: Ephrin type-B receptor 1 (Homo sapiens) (UniProt P54762)
[16] = biological target: Receptor tyrosine-protein kinase erbB-4 (Homo sapiens) (UniProt Q15303)
[17] = biological target: Mitogen-activated protein kinase 15 (Homo sapiens) (UniProt Q8TD08)
[18] = biological target: Tyrosine-protein kinase Fes/Fps (Homo sapiens) (UniProt P07332)
[19] = biological target: Serine/threonine-protein kinase ICK (Homo sapiens) (UniProt Q9UPZ9)
[20] = biological target: Interleukin-1 receptor-associated kinase 3 (Homo sapiens) (UniProt Q9Y616)
[21] = test system: Mast/stem cell growth factor receptor Kit (Homo sapiens), P10721 [V559D,V654A]
[22] = biological target: LIM domain kinase 1 (Homo sapiens) (UniProt P53667)
[23] = biological target: Dual specificity mitogen-activated protein kinase kinase 6 (Homo sapiens) (UniProt P52564)
[24] = biological target: Dual specificity mitogen-activated protein kinase kinase 7 (Homo sapiens) (UniProt O14733)
[25] = biological target: Mitogen-activated protein kinase kinase kinase 14 (Homo sapiens) (UniProt Q99558)
[26] = biological target: Platelet-derived growth factor receptor beta (Homo sapiens) (UniProt P09619)
[27] = test system: Phosphatidylinositol 4,5-bisphosphate 3-kinase catalytic subunit alpha isoform (Homo sapiens), P42336 [M1043I]
[28] = biological target: Protein kinase C epsilon type (Homo sapiens) (UniProt Q02156)
[29] = biological target: RAF proto-oncogene serine/threonine-protein kinase (Homo sapiens) (UniProt P04049)
[30] = biological target: Serine/threonine-protein kinase RIO1 (Homo sapiens) (UniProt Q9BRS2)
[31] = biological target: Ribosomal protein S6 kinase alpha-5 (Homo sapiens) (UniProt O75582)
[32] = biological target: Ribosomal protein S6 kinase alpha-1 (Homo sapiens) (UniProt Q15418)
[33] = biological target: Uncharacterized serine/threonine-protein kinase SBK3 (Homo sapiens) (UniProt P0C264)
[34] = biological target: STE20-like serine/threonine-protein kinase (Homo sapiens) (UniProt Q9H2G2)
[35] = biological target: SNF-related serine/threonine-protein kinase (Homo sapiens) (UniProt Q9NRH2)
[36] = biological target: Dual specificity testis-specific protein kinase 1 (Homo sapiens) (UniProt Q15569)
[37] = biological target: Non-receptor tyrosine-protein kinase TNK1 (Homo sapiens) (UniProt Q13470)
[38] = biological target: Activated CDC42 kinase 1 (Homo sapiens) (UniProt Q07912)
[39] = biological target: Non-receptor tyrosine-protein kinase TYK2 (Homo sapiens) (UniProt P29597)
[40] = biological target: Wee1-like protein kinase (Homo sapiens) (UniProt P30291)
[41] = biological target: 5-hydroxytryptamine receptor 1B (Homo sapiens) (UniProt P28222); conditions: Compound concentration 10.0 uM
[42] = biological target: Alpha-2A adrenergic receptor (Homo sapiens) (UniProt P08913); conditions: Compound concentration 10.0 uM
[43] = biological target: Beta-1 adrenergic receptor (Homo sapiens) (UniProt P08588); conditions: Compound concentration 10.0 uM
[44] = biological target: Muscarinic acetylcholine receptor M5 (Homo sapiens) (UniProt P08912); conditions: Compound concentration 10.0 uM
[45] = biological target: Sigma non-opioid intracellular receptor 1 (Homo sapiens) (UniProt Q99720); conditions: Compound concentration 10.0 uM
[46] = Compound concentration 100.0 nM
[47] = Compound concentration 1000.0 nM

Activin receptor type-2B (Homo sapiens), sequence (Q13705 whole entry): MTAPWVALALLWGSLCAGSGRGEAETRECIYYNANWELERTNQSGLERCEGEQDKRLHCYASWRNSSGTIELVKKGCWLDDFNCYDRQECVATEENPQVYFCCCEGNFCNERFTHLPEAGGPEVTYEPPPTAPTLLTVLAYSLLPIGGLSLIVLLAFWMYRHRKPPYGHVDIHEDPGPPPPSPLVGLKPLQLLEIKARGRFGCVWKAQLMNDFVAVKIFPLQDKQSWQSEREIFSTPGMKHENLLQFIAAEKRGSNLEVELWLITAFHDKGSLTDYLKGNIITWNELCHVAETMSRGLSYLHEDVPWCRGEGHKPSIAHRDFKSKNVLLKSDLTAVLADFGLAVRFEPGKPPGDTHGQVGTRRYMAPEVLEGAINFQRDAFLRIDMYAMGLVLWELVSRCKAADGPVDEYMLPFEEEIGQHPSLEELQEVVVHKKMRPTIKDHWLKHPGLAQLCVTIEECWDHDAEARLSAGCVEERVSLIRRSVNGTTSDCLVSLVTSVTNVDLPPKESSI
Ephrin type-B receptor 1 (Homo sapiens), sequence (P54762 whole entry): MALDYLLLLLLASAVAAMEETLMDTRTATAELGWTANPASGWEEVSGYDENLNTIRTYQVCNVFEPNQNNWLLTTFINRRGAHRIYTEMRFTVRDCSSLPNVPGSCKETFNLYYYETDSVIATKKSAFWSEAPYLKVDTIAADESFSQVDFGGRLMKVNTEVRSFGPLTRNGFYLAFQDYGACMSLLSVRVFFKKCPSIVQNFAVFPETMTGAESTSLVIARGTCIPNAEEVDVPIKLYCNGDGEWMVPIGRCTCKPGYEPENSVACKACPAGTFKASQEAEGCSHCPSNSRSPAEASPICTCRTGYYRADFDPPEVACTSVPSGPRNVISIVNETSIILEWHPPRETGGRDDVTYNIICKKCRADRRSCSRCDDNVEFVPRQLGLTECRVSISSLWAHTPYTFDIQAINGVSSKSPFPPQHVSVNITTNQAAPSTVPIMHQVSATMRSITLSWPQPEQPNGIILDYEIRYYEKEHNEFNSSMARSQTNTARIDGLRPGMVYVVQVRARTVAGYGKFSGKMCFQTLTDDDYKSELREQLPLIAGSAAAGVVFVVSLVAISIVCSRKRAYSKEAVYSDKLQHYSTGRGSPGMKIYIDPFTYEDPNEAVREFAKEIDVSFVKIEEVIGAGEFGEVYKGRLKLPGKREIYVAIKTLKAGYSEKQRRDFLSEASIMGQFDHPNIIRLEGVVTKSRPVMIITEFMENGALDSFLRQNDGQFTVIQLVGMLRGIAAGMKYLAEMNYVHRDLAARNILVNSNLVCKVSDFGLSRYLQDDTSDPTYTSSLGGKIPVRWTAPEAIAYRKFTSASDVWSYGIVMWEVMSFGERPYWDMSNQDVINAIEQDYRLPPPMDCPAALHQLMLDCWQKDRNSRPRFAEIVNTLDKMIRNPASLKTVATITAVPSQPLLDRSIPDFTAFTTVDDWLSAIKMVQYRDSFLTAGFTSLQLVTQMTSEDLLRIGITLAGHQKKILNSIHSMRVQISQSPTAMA
Wee1-like protein kinase (Homo sapiens), sequence (P30291 whole entry, looked up): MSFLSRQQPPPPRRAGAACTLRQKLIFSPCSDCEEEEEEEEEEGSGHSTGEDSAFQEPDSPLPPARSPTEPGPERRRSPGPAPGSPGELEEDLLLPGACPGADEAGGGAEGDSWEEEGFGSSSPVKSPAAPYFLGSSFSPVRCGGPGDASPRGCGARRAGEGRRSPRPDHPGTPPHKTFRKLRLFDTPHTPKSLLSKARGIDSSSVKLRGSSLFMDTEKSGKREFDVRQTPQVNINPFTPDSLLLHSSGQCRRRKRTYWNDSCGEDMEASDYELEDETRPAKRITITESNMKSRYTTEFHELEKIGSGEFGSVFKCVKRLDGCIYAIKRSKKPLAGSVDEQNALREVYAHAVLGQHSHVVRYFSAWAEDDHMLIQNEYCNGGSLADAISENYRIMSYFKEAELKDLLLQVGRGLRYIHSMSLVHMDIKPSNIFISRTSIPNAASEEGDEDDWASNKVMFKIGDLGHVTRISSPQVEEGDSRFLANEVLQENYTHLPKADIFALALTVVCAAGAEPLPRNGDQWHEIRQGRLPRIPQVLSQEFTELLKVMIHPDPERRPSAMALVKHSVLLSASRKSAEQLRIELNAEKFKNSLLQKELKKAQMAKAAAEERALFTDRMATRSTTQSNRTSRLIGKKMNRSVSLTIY
Beta-1 adrenergic receptor (Homo sapiens), sequence (P08588 whole entry, looked up): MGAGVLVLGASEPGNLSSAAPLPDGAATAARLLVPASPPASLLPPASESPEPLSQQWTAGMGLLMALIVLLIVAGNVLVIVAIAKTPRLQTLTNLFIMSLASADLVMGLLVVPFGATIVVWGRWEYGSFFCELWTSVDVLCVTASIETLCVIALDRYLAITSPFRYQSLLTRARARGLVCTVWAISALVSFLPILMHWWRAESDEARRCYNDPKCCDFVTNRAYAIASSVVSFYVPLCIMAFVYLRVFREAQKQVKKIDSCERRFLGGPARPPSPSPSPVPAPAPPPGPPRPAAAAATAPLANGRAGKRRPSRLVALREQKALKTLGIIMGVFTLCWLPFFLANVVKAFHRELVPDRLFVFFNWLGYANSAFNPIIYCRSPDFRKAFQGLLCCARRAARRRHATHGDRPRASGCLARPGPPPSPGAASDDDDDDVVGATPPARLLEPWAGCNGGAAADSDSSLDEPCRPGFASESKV
Dual specificity mitogen-activated protein kinase kinase 6 (Homo sapiens), sequence (P52564 whole entry): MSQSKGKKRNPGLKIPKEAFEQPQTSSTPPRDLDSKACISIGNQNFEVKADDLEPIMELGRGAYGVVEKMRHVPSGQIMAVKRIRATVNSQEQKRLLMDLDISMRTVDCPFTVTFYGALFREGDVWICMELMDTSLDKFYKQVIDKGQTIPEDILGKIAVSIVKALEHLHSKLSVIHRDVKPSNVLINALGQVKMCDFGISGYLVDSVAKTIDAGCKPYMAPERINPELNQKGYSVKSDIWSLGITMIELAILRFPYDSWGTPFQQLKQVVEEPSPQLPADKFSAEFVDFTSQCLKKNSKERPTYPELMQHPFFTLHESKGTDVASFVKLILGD
5-hydroxytryptamine receptor 1B (Homo sapiens), sequence (P28222 whole entry): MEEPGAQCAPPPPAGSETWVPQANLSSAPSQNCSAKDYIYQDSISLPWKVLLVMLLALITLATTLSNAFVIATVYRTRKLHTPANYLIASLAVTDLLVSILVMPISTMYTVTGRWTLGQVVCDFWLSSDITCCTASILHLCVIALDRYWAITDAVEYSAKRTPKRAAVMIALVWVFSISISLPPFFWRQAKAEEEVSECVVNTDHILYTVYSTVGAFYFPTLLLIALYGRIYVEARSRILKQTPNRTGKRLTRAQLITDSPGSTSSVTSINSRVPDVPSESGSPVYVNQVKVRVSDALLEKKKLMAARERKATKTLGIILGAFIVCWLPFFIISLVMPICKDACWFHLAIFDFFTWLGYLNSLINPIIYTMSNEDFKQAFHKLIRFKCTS
Receptor tyrosine-protein kinase erbB-4 (Homo sapiens), sequence (Q15303 whole entry): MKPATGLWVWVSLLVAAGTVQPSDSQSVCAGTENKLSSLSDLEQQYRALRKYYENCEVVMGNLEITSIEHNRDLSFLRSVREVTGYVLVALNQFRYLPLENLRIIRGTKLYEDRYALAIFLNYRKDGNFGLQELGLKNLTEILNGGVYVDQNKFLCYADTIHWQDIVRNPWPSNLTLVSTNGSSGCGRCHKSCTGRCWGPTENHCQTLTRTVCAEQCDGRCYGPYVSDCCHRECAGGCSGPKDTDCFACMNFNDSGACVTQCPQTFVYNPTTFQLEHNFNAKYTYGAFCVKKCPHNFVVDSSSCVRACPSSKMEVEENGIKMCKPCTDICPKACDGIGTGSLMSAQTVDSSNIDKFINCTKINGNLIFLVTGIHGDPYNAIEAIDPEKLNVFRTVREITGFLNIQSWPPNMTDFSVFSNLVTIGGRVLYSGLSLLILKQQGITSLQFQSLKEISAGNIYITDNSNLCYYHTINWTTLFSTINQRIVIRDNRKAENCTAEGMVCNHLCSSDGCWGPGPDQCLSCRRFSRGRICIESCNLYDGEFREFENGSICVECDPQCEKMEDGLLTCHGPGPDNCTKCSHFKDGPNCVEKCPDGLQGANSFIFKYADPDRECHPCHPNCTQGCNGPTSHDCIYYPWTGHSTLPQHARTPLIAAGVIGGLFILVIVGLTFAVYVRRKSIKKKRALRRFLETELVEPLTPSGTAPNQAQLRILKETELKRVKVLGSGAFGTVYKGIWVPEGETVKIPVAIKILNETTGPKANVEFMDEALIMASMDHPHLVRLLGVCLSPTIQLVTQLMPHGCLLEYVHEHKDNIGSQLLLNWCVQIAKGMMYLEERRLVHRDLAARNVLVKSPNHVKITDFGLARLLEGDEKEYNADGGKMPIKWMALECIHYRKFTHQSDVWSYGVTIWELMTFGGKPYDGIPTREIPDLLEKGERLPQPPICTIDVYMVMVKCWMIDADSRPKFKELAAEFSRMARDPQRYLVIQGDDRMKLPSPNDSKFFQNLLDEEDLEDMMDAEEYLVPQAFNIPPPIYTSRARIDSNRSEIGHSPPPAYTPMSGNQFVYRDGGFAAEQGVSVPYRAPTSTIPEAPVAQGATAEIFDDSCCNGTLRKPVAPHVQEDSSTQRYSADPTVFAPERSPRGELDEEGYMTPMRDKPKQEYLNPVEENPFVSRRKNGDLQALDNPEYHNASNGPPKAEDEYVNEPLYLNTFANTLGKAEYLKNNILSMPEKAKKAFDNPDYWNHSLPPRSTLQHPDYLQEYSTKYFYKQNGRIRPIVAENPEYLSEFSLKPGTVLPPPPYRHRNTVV
Sigma non-opioid intracellular receptor 1 (Homo sapiens), sequence (Q99720 whole entry): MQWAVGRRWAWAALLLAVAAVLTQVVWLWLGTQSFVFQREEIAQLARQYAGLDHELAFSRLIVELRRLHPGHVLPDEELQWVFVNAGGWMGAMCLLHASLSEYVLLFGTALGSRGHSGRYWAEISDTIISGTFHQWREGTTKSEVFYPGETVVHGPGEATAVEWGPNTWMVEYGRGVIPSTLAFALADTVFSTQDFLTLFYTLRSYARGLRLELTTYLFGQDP

Molecule `CNC(=O)c1ccc(Nc2ncc(C(F)(F)F)c(NCc3nccnc3N(C)S(C)(=O)=O)n2)cc1` [DEFACTINIB] has a residual activity [1, 46] of 98%, a residual activity [2, 46] of 88% and a residual activity [3, 46] of 69%. It also gave a residual activity [4, 46] of 100%, a residual activity [5, 46] of 36% and a residual activity [6, 46] of 74%. It also gave a residual activity [7, 46] of 81%, a residual activity [8, 46] of 71% and a residual activity [9, 46] of 86%. For the same molecule, the residual activity [10, 46] was 83%, the residual activity [11, 46] was 50% and the residual activity [12, 46] was 100%. It also gave a residual activity [13, 46] of 83%, a residual activity [14, 46] of 82% and a residual activity [15, 46] of 87%. For the same molecule, the residual activity [16, 46] was 84%, the residual activity [17, 46] was 40% and the residual activity [18, 46] was 82%. It also gave a residual activity [19, 46] of 68%, a residual activity [20, 46] of 70% and a residual activity [21, 46] of 100%. For the same molecule, the residual activity [22, 46] was 100%, the residual activity [23, 46] was 77% and the residual activity [24, 46] was 97%. The residual activity [25, 46] was 92%, the residual activity [26, 46] was 83% and the residual activity [27, 46] was 100%. For the same molecule, the residual activity [28, 46] was 100%, the residual activity [29, 46] was 97% and the residual activity [30, 46] was 100%. The residual activity [31, 46] was 81%, the residual activity [32, 46] was 100% and the residual activity [33, 46] was 100%. The residual activity [34, 46] was 53%, the residual activity [35, 46] was 100% and the residual activity [36, 46] was 96%. It also gave a residual activity [37, 46] of 100%, a residual activity [38, 46] of 100% and a residual activity [39, 46] of 87%. For the same molecule, the residual activity [40, 46] was 95%, the inhibition [41] was 12.5% and the inhibition [42] was 9.61%. The inhibition [43] was -0.83%, the inhibition [44] was 5.41% and the inhibition [45] was 40.1%.

Molecule `CN(c1ccnc(CNc2nc(Nc3ccc4c(c3)CC(=O)N4)ncc2C(F)(F)F)n1)S(C)(=O)=O` [PF-00911705] has a residual activity [1, 47] of 94%, a residual activity [2, 47] of 77% and a residual activity [3, 47] of 26%. For the same molecule, the residual activity [4, 47] was 73%, the residual activity [5, 47] was 100% and the residual activity [6, 47] was 77%. For the same molecule, the residual activity [7, 47] was 2.3%, the residual activity [8, 47] was 80% and the residual activity [9, 47] was 86%. For the same molecule, the residual activity [10, 47] was 100%, the residual activity [11, 47] was 97% and the residual activity [12, 47] was 100%. For the same molecule, the residual activity [13, 47] was 48%, the residual activity [14, 47] was 57% and the residual activity [15, 47] was 99%. The residual activity [16, 47] was 46%, the residual activity [17, 47] was 4.8% and the residual activity [18, 47] was 74%. For the same molecule, the residual activity [19, 47] was 100%, the residual activity [20, 47] was 11% and the residual activity [21, 47] was 67%. It also gave a residual activity [22, 47] of 97%, a residual activity [23, 47] of 83% and a residual activity [24, 47] of 73%. The residual activity [25, 47] was 65%, the residual activity [26, 47] was 69% and the residual activity [27, 47] was 95%. The residual activity [28, 47] was 50%, the residual activity [29, 47] was 85% and the residual activity [30, 47] was 9.7%. The residual activity [31, 47] was 96%, the residual activity [32, 47] was 100% and the residual activity [33, 47] was 100%. The residual activity [34, 47] was 41%, the residual activity [35, 47] was 85% and the residual activity [36, 47] was 97%. It also gave a residual activity [37, 47] of 65%, a residual activity [38, 47] of 86% and a residual activity [39, 47] of 59%. The residual activity [40, 47] was 13%, the inhibition [41] was 5.78% and the inhibition [42] was 0.4%. The inhibition [43] was 16.4%, the inhibition [44] was -6.47% and the inhibition [45] was 23.1%.
